The subject of the assay is Aβ42. Nature of the assay: In vitro cell screening assay; quantification of Aβ (1-42) peptide by sandwich ELISA. Format: cell-based. The conditions noted are these: Human neuroglioma H4 cells stably expressing human wild type APP751; compounds 0.003-10 μM, incubated overnight (16-18 h); Aβ42 in supernatant by sandwich ELISA; normalized to DMSO and DAPT; read-out: Aβ42 H4 Prot Fre IC50. An outline of the steps:
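Stable H4 neuroglioma line expressing human wild-type APP751; compounds 0.003-10 μM (0.33% DMSO final) added in Pro293 medium 6 h after plating, incubated overnight (16-18 h) at 37 °C. Secreted Aβ42 measured in supernatant by C-terminal-capture sandwich ELISA with 4G8-HRP detection; IC50 by sigmoidal fit, normalized to DMSO and DAPT.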
In general terms: An ELISA detects its analyte on a solid surface through an enzyme-linked reagent.

From patent US20170050980A1, “OXADIAZINE COMPOUNDS AND METHODS OF USE THEREOF” (FORUM Pharmaceuticals Inc., priority 2015, published 2017) come the findings set out here.

The structures appear in SMILES notation.

A word on the IC50: it is the concentration needed to halve the response being measured.

With `COc1nc(C2=NO[C@H](c3ccc(Cl)cc3)[C@H](C)N2)ccc1-n1cnc(C)c1` [Example 71A, (5S,6R)-6-(4-chlorophenyl)-3-(6-methoxy-5-(4-methyl-1H-imidazol-1-yl)pyridin-2-yl)-5-methyl-5,6-dihydro-4H-1,2,4-oxadiazine], the IC50 is 12.7 nM.
